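Cells were grown in 96-well plates and exposed to each compound for 48 hours at five concentrations; endpoints were interpolated linearly between bracketing concentrations, or set to the highest concentration if not reached. The concentration for 50% growth inhibition is given as GI50. TGI denotes the concentration required for complete inhibition of growth.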
Experiments:
Test in all cases: growth of human tumour cells (NCI), 48 h
U251 CNS = tested on: U251 CNS
SF-268 CNS = tested on: SF-268 CNS
SR leukemia = tested on: SR leukemia
SNB-75 CNS = tested on: SNB-75 CNS
NCI-H226 lung = tested on: NCI-H226 lung
HCC-2998 colon = tested on: HCC-2998 colon
CAKI-1 renal = tested on: CAKI-1 renal
MDA-MB-435 = tested on: MDA-MB-435
SW-620 colon = tested on: SW-620 colon
HS 578T breast = tested on: HS 578T breast

SMILES	GI50 (U251 CNS)	TGI (U251 CNS)	GI50 (SF-268 CNS)	TGI (SF-268 CNS)	GI50 (SR leukemia)	TGI (SR leukemia)	GI50 (SNB-75 CNS)	TGI (SNB-75 CNS)	GI50 (NCI-H226 lung)	TGI (NCI-H226 lung)	GI50 (HCC-2998 colon) [µM]	TGI (HCC-2998 colon) [µM]	GI50 (CAKI-1 renal)	TGI (CAKI-1 renal)	GI50 (MDA-MB-435)	TGI (MDA-MB-435)	GI50 (SW-620 colon)	TGI (SW-620 colon)	GI50 (HS 578T breast)	TGI (HS 578T breast)
N#CC1=C(N)Oc2c(sc3c(F)cccc23)C1c1ccc([N+](=O)[O-])cc1 (centres undefined)	0.153 µM	1.21 µM	0.325 µM	1.93 µM	0.0478 µM	7.42 µM	0.115 µM	0.445 µM	0.376 µM	1.93 µM	0.307	1.46	0.249 µM	1.66 µM	0.0272 µM	0.0848 µM	0.0723 µM	1.42 µM	0.194 µM	0.808 µM
COc1cc2cc(C(=O)O)[nH]c2cc1OCc1ccccc1	> 100 µM	> 100 µM	> 100 µM	> 100 µM	> 100 µM	> 100 µM	> 100 µM	> 100 µM	> 100 µM	> 100 µM	> 100	> 100	> 100 µM	> 100 µM	> 100 µM	> 100 µM	> 100 µM	> 100 µM	> 100 µM	> 100 µM
CS(=O)(=O)c1ccc(C(F)(F)F)cc1NC(=O)Nc1cnc(Oc2ccc(-c3cc(Cl)cnc3N)cc2)nc1	2.56 µM	12.3 µM	2.39 µM	10.3 µM	1.98 µM	4.66 µM	1.11 µM	11.5 µM	2.75 µM	26.3 µM	2.79	8.72	2.98 µM	22.4 µM	2.23 µM	5.79 µM	3.24 µM	16.8 µM	2.08 µM	8.44 µM
O=[N+]([O-])c1ccc2nc(N/N=C/c3ccc(O)cc3)sc2c1	4.56 µM	67.5 µM	4.84 µM	53.1 µM	3.07 µM	20.7 µM	5.16 µM	56.1 µM	17.5 µM	62.8 µM	7.08	> 100	4.07 µM	81.5 µM	3.61 µM	91.9 µM	4.91 µM	27.2 µM	3.7 µM	38.3 µM
O=C1Nc2ccccc2SC1C1SC(=S)N(Cc2ccccc2)C1=O (centres undefined)	3.14 µM	12.2 µM	3.37 µM	11.4 µM	4.03 µM	> 78.2 µM	10.5 µM	24.6 µM	17 µM	35 µM	5.33	17.1	4.53 µM	17.6 µM	3.04 µM	15.5 µM	2.39 µM	13.6 µM	5.52 µM	31.2 µM
Cc1cc(N2CCN(C)CC2)nc(NC2CCCC(Nc3ccnc4cc(Cl)ccc34)C2)n1 (centres undefined)	2.02 µM	4.33 µM	1.97 µM	6.35 µM	0.643 µM	5.23 µM	1.65 µM	5 µM	3.01 µM	10.3 µM	1.97	7.4			1.8 µM	3.37 µM	2.48 µM	10.8 µM	2.17 µM	6.41 µM
O=C1C(Nc2ccccn2)=C(I)C(=O)c2ncccc21	0.591 µM	2.07 µM	1.34 µM	3.8 µM	0.274 µM	10 µM	1.01 µM	2.23 µM	1.43 µM	3.08 µM	1.53	2.98	0.826 µM	2.12 µM	0.307 µM	0.947 µM	0.33 µM	1.63 µM	1.2 µM	4.9 µM
C=C1CC2(OC1=O)c1ccccc1CCc1ccccc12		18.1 µM		4.54 µM		2.3 µM		15.6 µM		26.8 µM		6.51		3.82 µM		6.15 µM		3.02 µM		5.03 µM
C=CCSc1n[nH]c(-c2cccs2)n1	> 100 µM	> 100 µM	> 100 µM	> 100 µM	> 100 µM	> 100 µM	> 100 µM	> 100 µM	> 100 µM	> 100 µM	> 100	> 100	> 100 µM	> 100 µM	> 100 µM	> 100 µM	> 100 µM	> 100 µM	> 100 µM	> 100 µM
Clc1ccc2c(NCCCN3CCN(c4nc(-n5ccnc5)nc5ccccc45)CC3)ccnc2c1	1.89 µM	3.53 µM			1.9 µM	5.7 µM	1.58 µM	3.25 µM	> 100 µM	> 100 µM	> 100	> 100	8.91 µM		1.74 µM	3.2 µM			2.28 µM	19.2 µM
CC1=COC2=C(C)C(=O)C(=O)c3c(C)ccc1c32		> 44.7 µM		36.6 µM		> 42.6 µM		42.6 µM		68.9 µM		19.6		> 63.4 µM		3.86 µM		28.9 µM		> 95.7 µM
O=C=Nc1ccc(Cc2ccc(N=C=O)cc2)cc1 (tested in a mixture with another compound)	> 25 µg/mL	> 25 µg/mL	> 25 µg/mL	> 25 µg/mL	> 25 µg/mL	> 25 µg/mL	> 25 µg/mL	> 25 µg/mL	> 25 µg/mL	> 25 µg/mL			> 25 µg/mL	> 25 µg/mL	> 25 µg/mL	> 25 µg/mL	> 25 µg/mL	> 25 µg/mL	> 25 µg/mL	> 25 µg/mL
C/C=C(/C)C(=O)OC1C=C(CO)C(=O)C(OC(=O)/C(C)=C\C)C1C(C)C (centres undefined)	0.708 µM	2.03 µM	1.46 µM	3.05 µM	0.315 µM	3.69 µM	1.4 µM	2.73 µM	2.41 µM	6.01 µM	1.71	3.27	1.34 µM	2.62 µM	0.95 µM	2.33 µM			2.35 µM	6.29 µM
